The text below walks through data of patent publication US20080032950A1, “Neurologically-Active Compounds” (The University of Sydney, priority 2004, published 2008).

The Kb is the affinity of an antagonist, worked out from how it opposes an agonist.

The target of one test is GABAC receptors. The note with it: antagonist; Woodward et al, 1993; cited from earlier work.
Another test has as its target T1, GABAB (GB1) (Homo sapiens, UniProt Q9UBS5).
T1 construct: expressed in transfected cells; host or cells: Xenopus laevis oocytes injected with mRNA
Description: Two-electrode voltage clamp on GABAB receptors expressed in Xenopus oocytes. It is filed as cell-based. The note with it: for GABAB (GB1) activity (type of action): voltage clamp -60 mV. As to the method:
(§1) The activity of compounds (15), (16), (17), (18) and (19) on GABA receptor sub-types were determined as described in Chebib, M., Mewett, K. N., Johnston, G. A. R., 1998, “GABAC receptor antagonists differentiate between human ρ1 and ρ2 receptors expressed in Xenopus oocytes”, European Journal of Pharmacology 357, 227-234.
(§2) In this method, oocytes were harvested from Xenopus laevis and defolliculated. The oocytes were then stored in ND96 solution (96 mM NaCl, 2 mM KCl, 1.8 mM CaCl2.2H2O, 1 mM MgCl2.6H2O, 5 mM HEPES (hemi-Na), pH 7.5) supplemented with 2.5 mM sodium pyruvate, 0.5 mM theophylline and 50 μgml^−1 gentamycin. The storage solution was changed daily.
(§3) Stage V-VI oocytes were injected with mRNA (10 ng/50 nl) and then stored at 16° C. Recordings of receptor activity were obtained after two to eight days by a two-electrode voltage clamp by means of a Geneclamp 500 amplifier (Axon Instruments Inc., Foster City, Calif.), a MacLab 2e recorder (AD Instruments, Sydney, NSW) and Chart version 3.6.3 program. Oocytes were voltage clamped at −60 mV and the preparation was continually perfused with ND96 solution at room temperature. Known concentrations of agonists and antagonists dissolved in ND96 were applied in the absence and presence of GABA respectively until maximum current was reached, at which time the oocyte was washed for five to ten minutes to allow complete recovery of response to a known dose of GABA. In the case of antagonists, two dose response curves were conducted on the same cell to enable calculation of single point estimates: a GABA dose-response curve and a GABA dose-response curve in the presence of a known concentration of antagonist. All compounds were tested on oocytes from at least three harvests.

The next test addresses T2, GABAC (ρ1) (Homo sapiens, UniProt P24046).
T2 construct: expressed in transfected cells; host or cells: Xenopus laevis oocytes injected with mRNA
Description: Two-electrode voltage clamp on ρ1 GABAC receptors expressed in Xenopus oocytes. The note with it: for Selectivity (receptor subtype preferred): among GABAA, GABAB, GABAC; for Selectivity (fold): for GABAC over GABAA and GABAB. Type of test: cell-based. On the procedure:
as §1, §2, §3
The activity of this compound on the GABA receptor sub-types was determined by the same procedure as described in Example 2 for compounds (15) to (19). (±)-3-Aminocyclopente-1-nyl)methylphosphinic acid (200 μM) had no effect alone on ρ1 GABAC receptors but in the presence of 1 μM GABA inhibited the response by 65%.
(Two-electrode voltage clamp holds a large cell at a set potential and records current.)

Another test deals with T3, GABAA (α1β2γ2L) (Homo sapiens, UniProt P14867+P47870).
T3 construct: expressed in transfected cells; host or cells: Xenopus laevis oocytes injected with mRNA
Description: Two-electrode voltage clamp on GABAA receptors expressed in Xenopus oocytes. Type of test: cell-based. The note with it: for GABAA (α1β2γ2L) activity (type of action): Xenopus oocytes, voltage clamp -60 mV. As to the method: as §1, §2, §3

The target of the next test is GABAC receptor (Homo sapiens, UniProt P24046). The note with it: cited from earlier work.
The mark [1] stands for this setting: Xenopus oocytes, voltage clamp -60 mV.

Where two headings read alike, the source gives them in different places.

T3 sequence (P14867 28-456): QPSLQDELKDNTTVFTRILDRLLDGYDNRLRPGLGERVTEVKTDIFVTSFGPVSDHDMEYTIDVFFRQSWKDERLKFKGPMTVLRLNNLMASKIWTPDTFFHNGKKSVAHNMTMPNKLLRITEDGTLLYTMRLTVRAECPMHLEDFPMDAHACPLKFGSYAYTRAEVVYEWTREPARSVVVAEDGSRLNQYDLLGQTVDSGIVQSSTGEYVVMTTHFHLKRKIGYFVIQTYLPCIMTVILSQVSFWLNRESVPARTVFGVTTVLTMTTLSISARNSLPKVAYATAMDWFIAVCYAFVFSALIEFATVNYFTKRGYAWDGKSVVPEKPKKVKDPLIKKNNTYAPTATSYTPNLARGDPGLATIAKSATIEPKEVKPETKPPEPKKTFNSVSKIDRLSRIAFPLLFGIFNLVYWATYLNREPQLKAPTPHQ
T3 sequence (P47870 25-512 limits assumed): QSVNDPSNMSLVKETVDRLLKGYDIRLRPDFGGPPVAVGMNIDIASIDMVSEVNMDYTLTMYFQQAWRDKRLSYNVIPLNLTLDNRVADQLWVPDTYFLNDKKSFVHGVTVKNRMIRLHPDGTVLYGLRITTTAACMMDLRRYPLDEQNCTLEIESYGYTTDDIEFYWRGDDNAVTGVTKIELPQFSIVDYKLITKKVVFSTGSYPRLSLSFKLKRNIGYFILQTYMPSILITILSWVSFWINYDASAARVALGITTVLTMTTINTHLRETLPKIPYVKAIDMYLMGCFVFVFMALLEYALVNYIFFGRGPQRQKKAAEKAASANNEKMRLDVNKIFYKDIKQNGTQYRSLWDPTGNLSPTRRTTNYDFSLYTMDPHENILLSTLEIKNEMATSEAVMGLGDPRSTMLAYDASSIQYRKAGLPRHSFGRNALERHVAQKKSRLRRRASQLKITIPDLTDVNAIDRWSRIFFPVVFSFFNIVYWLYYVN
T3 sequence (P18507 40-475 partner): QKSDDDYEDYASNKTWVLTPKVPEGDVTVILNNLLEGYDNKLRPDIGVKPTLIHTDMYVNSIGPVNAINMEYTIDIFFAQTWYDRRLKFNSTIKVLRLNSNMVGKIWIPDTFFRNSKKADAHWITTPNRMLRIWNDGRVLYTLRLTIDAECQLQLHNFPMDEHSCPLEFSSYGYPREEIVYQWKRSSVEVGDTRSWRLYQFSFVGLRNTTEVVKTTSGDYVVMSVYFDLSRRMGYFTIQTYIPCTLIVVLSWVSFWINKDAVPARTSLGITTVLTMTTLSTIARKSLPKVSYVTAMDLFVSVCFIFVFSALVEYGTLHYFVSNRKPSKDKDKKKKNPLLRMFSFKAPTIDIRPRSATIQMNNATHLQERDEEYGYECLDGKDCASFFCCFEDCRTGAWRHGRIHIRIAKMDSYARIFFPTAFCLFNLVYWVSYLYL
T1 sequence (Q9UBS5 20-961, species assumed): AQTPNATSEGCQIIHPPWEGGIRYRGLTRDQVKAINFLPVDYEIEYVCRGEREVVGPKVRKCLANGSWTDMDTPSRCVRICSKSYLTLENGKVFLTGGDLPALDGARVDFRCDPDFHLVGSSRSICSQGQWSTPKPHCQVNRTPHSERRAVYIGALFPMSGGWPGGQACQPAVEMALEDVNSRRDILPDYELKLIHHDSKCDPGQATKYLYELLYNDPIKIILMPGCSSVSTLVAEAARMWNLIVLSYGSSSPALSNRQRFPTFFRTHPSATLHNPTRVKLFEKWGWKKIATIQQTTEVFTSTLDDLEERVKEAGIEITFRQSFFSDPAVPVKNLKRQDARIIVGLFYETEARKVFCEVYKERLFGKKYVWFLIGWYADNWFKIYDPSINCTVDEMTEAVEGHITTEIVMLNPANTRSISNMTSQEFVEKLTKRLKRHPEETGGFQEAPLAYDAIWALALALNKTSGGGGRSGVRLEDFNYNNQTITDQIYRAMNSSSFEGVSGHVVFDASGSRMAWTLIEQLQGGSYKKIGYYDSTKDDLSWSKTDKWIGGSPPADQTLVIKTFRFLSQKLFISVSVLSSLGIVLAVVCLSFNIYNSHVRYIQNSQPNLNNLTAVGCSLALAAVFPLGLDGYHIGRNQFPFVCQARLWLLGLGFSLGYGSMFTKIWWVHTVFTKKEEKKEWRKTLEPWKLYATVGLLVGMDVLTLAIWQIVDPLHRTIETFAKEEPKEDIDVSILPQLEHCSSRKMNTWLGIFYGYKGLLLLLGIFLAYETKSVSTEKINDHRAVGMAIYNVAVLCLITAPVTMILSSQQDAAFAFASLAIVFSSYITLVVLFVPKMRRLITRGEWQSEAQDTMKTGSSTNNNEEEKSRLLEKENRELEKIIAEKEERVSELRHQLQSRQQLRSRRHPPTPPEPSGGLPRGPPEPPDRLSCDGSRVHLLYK
T1 sequence (O75899 42-941 partner, species assumed): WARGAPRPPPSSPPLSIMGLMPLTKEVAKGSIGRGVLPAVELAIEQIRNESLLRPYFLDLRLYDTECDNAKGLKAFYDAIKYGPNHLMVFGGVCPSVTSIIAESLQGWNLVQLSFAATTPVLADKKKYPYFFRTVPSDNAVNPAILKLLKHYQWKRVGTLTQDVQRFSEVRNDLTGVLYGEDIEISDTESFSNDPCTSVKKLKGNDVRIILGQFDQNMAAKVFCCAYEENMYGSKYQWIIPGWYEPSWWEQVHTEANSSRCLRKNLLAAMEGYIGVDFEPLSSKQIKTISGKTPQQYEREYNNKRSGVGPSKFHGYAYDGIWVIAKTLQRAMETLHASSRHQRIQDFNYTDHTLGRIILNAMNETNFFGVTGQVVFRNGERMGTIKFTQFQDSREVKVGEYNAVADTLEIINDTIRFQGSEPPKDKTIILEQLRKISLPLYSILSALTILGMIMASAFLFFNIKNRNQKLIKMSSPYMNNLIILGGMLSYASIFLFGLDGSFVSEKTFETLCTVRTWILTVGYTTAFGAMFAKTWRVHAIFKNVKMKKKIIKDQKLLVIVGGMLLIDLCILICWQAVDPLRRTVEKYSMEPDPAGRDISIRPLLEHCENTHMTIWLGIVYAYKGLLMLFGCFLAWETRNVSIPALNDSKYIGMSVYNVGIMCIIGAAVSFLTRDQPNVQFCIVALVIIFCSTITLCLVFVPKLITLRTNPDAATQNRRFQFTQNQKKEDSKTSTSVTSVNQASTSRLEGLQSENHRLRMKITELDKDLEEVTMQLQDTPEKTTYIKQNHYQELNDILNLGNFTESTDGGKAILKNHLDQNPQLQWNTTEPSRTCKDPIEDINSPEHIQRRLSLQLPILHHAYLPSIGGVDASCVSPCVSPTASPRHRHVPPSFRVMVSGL
T2 sequence (P24046 22-479): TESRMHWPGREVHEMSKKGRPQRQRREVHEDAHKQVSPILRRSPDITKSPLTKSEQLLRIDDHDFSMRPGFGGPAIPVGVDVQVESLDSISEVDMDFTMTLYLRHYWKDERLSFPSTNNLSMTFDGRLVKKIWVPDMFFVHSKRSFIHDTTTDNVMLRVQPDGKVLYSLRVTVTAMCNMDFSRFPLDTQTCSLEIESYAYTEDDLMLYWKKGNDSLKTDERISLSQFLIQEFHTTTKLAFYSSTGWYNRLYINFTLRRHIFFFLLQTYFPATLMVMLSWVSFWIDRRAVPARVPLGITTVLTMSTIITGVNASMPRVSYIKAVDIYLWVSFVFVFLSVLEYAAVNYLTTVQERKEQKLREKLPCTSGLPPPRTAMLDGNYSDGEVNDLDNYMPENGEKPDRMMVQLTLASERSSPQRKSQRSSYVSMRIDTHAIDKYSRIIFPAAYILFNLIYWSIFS
Chain of GABAC receptor (P24046 22-479): as above

For `NCCC[PH](=O)O` [CGP27492, 3-aminopropylphosphinic acid], the antagonist dissociation constant (Kb) at GABAC receptors was 0.8 µM.
On GABAB (GB1), `CCP(=O)(O)C1=CCC(N)C1` (racemic) [Compound 16, (±)-(4-Aminocyclopent-1-enyl)ethylphosphinic acid] registered an IC50 of more than 300 µM. The “GABAB (GB1) activity (type of action)” value at GABAB (GB1) (Xenopus oocytes) is recorded as “Antagonist”. The “GABAC (ρ1) activity (type of action)” value at GABAC (ρ1) (setting [1]) is listed as “Antagonist”. At GABAC (ρ1), the “Selectivity (receptor subtype preferred)” value is reported as “GABAC” and the “Selectivity (fold)” value was “˜25x”. Further, on GABAA (α1β2γ2L), the IC50 is more than 600 µM and the “GABAA (α1β2γ2L) activity (type of action)” value (“GABAA (α1β2γ2L) activity” for short) is given as “Antagonist”.
For “(1,2,5,6-tetrahydropyridine-4-yl)methylphosphinic acid [TPMPA]”, on GABAC receptor (antagonist, Murata et al, 1996, Ragozzinno et al, 1996, read-out: KB at GABAC receptors), the Kb is 2.1 µM. Further, on GABAC receptor (read-out: Concentration producing 50% inhibition of GABAC receptor activation), the IC50 was 2.1 µM.
For `NC1CC=C(P(=O)(O)Cc2ccccc2)C1` (racemic) [Compound 19, (±)-(4-Aminocyclopent-1-enyl)benzylphosphinic acid], the “GABAB (GB1) effect” value at GABAB (GB1) (at ~300 μM, Xenopus oocytes) was “(No effect ˜ 300 μM)”. The “GABAC (ρ1) activity (type of action)” value on GABAC (ρ1) (setting [1]) was “Antagonist”. Besides, the IC50 on GABAC (ρ1) (Xenopus oocytes, voltage clamp -60 mV, read-out: GABAC (ρ1) IC50) was more than 300 µM. In addition, on GABAA (α1β2γ2L), the “GABAA (α1β2γ2L) activity” value was “Antagonist”.
As to `CP(=O)(O)C1=CCC(N)C1` (racemic) [Compound 15, (±)-(4-Aminocyclopent-1-enyl)methylphosphinic acid], the “GABAB (GB1) activity (type of action)” value at GABAB (GB1) (Xenopus oocytes) is “Partial Agonist”. The “GABAC (ρ1) activity (type of action)” value on GABAC (ρ1) (setting [1]) was “Antagonist”. At GABAC (ρ1), the “Selectivity (receptor subtype preferred)” value is listed as “GABAC” and the “Selectivity (fold)” value is “˜50x”. Further, on GABAA (α1β2γ2L), the IC50 is more than 300 µM and the “GABAA (α1β2γ2L) activity” value is on record as “Antagonist”.
Take `NCCCP(=O)(O)O` [Compound 3-APA, 3-aminopropylphosphonic acid]: the Kb at GABAC receptors was 1.8 µM.
`CCCCP(=O)(O)C1=CCC(N)C1` (racemic) [Compound 18, (±)-(4-Aminocyclopent-1-enyl)butylphosphinic acid]: the IC50 against GABAB (GB1) was approximately 300 µM. The “GABAB (GB1) activity (type of action)” value on GABAB (GB1) (Xenopus oocytes) was “Antagonist”. In addition, the “GABAC (ρ1) activity (type of action)” value at GABAC (ρ1) (setting [1]) is “Antagonist”. On GABAC (ρ1), the “Selectivity (receptor subtype preferred)” value is listed as “GABAC” and the “Selectivity (fold)” value was “˜100x”. Besides, at GABAA (α1β2γ2L), the IC50 is more than 300 µM and the “GABAA (α1β2γ2L) activity” value was “Antagonist”.
Turning to `CP(=O)(O)CCCN` [CGP35024, (3-aminopropyl)methylphosphinic acid], at GABAC receptors, the antagonist equilibrium constant (Kb) was 0.8 µM.
On GABAB (GB1), `CC(C)P(=O)(O)C1=CCC(N)C1` (racemic) [Compound 17, (±)-(4-Aminocyclopent-1-enyl)isopropylphosphinic acid] registered an IC50 of more than 300 µM. In addition, on GABAB (GB1) (Xenopus oocytes), the “GABAB (GB1) activity (type of action)” value is recorded as “Antagonist”. Moreover, at GABAC (ρ1), the IC50 amounted to 6.34 µM, the “Selectivity (receptor subtype preferred)” value is recorded as “GABAC” and the “Selectivity (fold)” value is on record as “˜50x”. Moreover, the “GABAC (ρ1) activity (type of action)” value on GABAC (ρ1) (setting [1]) is listed as “Antagonist”. Further, on GABAA (α1β2γ2L), the IC50 was more than 600 µM and the “GABAA (α1β2γ2L) activity” value is reported as “Antagonist”.
